Columns and labels:
[1] = Rate of dissolution in H2O at 25° C. of rebaudioside A polymorph and amorphous forms; assay type: physicochemical
Text: The purification of rebaudioside A by crystallization as described above results in the formation of at least three different polymorphs: Form 1: a rebaudioside A hydrate; Form 2: an anhydrous rebaudioside A; and Form 3: a rebaudioside A solvate. In addition to the at least three polymorph forms of rebaudioside A, the purification of rebaudioside A may result in the formation of an amorphous form of rebaudioside A, Form 4. The aqueous organic solution and temperature of the purification process influence the resulting polymorph and amorphous forms in the substantially pure rebaudioside A composition. FIGS. 1-5 are exemplary powder x-ray diffraction (XRPD) scans of the polymorph and amorphous forms of rebaudioside A: Form 1 (hydrate), Form 2 (anhydrate), Form 3A (methanol solvate), Form 3B (ethanol solvate), and Form 4 (amorphous), respectively.

[2] = assay type: physicochemical
Procedure: A solution of rebaudioside A (>97% pure by HPLC) was prepared in double distilled water (12.5 gm in 50 mL, 25% concentration) by stirring the mixture at 40° C. for 5 minutes. An amorphous form of rebaudioside A was formed by immediately using the clear solution for spray drying with the Lab-Plant spray drier SD-04 instrument (Lab-Plant Ltd., West Yorkshire, U.K.). The solution was fed through the feed pump into the nozzle atomizer which atomized it into a spray of droplets with the help of a constant flow of nitrogen/air. […] This dry powder (11-12 g, H2O 6.74%) was discharged continuously from the drying chamber and was collected in a bottle.

For rebaudioside A [Form 1], the “Rate of dissolution in H2O at 25° C.” value ([1]; graded Very low) was “Very low (<0.2%/60 %/60 minutes”.

In the case of rebaudioside A [Form 2], the “Rate of dissolution in H2O at 25° C.” value ([1]; graded Intermediate or High) is reported as “Intermediate (<30%/5 %/5 minutes”.

With rebaudioside A [Form 3] the “Rate of dissolution in H2O at 25° C.” value ([1]; graded Intermediate or High) was “High (>30%/5 %/5 minutes”.

In the case of rebaudioside A [Form 4], the “solubility in water at room temperature” value [2] is reported as over 35.0% and the “Rate of dissolution in H2O at 25° C.” value ([1]; graded Intermediate or High) is reported as “High (>35%/5 %/5 minutes”.

From patent publication US20080107787A1, “Anti-Diabetic Composition with High-Potency Sweetener” (THE COCA-COLA COMPANY, priority 2006, published 2008)
